Source: patent publication US20130296434A1, “FORMULATIONS AND METHODS FOR TREATING AMYLOIDOSIS” (Kiacta Sarl, priority 2005, published 2013)

Tests used:
[1] = Pharmacokinetics of single and repeated oral doses of PDS in healthy male subjects; assay type: in vivo, human; settings: for AUC(0-t) / Cmax / Tmax: male, po, n = 6; for AUC(0-t) / Cmax: mean; for Tmax: median
Excerpt: (§1) In the following examples, terms are as defined below. The pharmacokinetic parameters were derived by non-compartmental analysis using WinNonlin® (Pharsight Corp., Mountain View, Calif., USA). • Cmax—the maximum observed plasma concentration. • Tmax—the time of occurrence of Cmax. • AUC0-t—the area under the plasma concentration versus time curve from time zero to the last sampling time at which concentrations were at or above the limit of quantification, calculated by the linear trapezoidal rule. • AUC∞—the area under the plasma concentrations versus time curve from time zero to infinity, calculated from AUC0-t+(Clast/λz), where Clast is the last observed quantifiable concentration and λz is the apparent terminal rate constant. • t1/2 the apparent terminal half-life, calculated from ln 2/λz
The safety, tolerability and pharmacokinetics of PDS following multiple rising oral doses in healthy male adult volunteers is determined. This is a randomized, double-blind, placebo-controlled study to assess the pharmacokinetic profile of single and repeated oral doses of PDS at 400, 800 and 1600 mg in healthy male subjects. PDS is administered as a single oral dose to healthy male subjects at 400, 800 and 1600 mg on Days 1 and 7. Following the single oral administration on Day 1, PDS is administered on Days 2, 3, 4, 5 and 6 at 400, 800 and 1600 mg four times daily, or 1600 mg three times daily. Blood samples are collected through 24 hours after the dose on Day 1, before the first and last doses on Days 2 through 6, and after 48 hours after the final dose on Day 7. Plasma concentrations of PDS are determined using validated HPLC methods. Following single and repeated oral doses of PDS maximum plasma concentrations are generally reached within 0.25 to 1 hour post-dose. The mean half-life (T1/2) ranges from 5 to 20 hours after single or multiple dosing. Accumulation after multiple dosing is consistent with the T1/2 and dosing frequency.

[2] = Pharmacokinetics of PDS after single and multiple oral administration in AA amyloidosis patients; assay type: in vivo; settings: human, plasma; for AUC(0-t) / Cmax / half-life: po; for half-life: multiple dose oral administration
Excerpt: as §1
The safety, efficacy and pharmacokinetics of PDS after single and multiple oral administration in subjects with AA amyloidosis is determined. This is a multicenter, multinational, randomized, double-blind, placebo-controlled, and parallel-design study to assess the pharmacokinetic profile of single and repeated doses of PDS. Dosing depends on the severity or renal impairment in a subject: subjects having creatinine clearance (ClCr)>80 mL/min receive 1200 mg BID; for ClCr between 30 and 80 mL/min, the subject receives 800 mg BID; and for ClCr between 20 and 30 mL/min, the subject receives 400 mg BID. If ClCr decreases to the next lower range level, the dose regimen is adjusted accordingly. PDS is administered as a single oral dose for a subset of AA amyloidosis patients on Month 0 and 24 visits. Following the single administration on Month 0, PDS is administered twice daily for 24 months. Blood samples are collected through 24 hours after the doses on Month 0 and 24, and through 8 hours after the doses on Month 4, 8, 12 visits. Plasma concentrations of PDS are determined using validated HPLC methods. Following multiple dose oral administration of PDS, the range of accumulation across subjects is 1.75 to 3.44. Based on the accumulation factor, the mean T1/2 calculated is 15 hours with a range of 10 to 24 hours.

[3] = human, plasma, 400 mg, 400 mg q.i.d. group, Day 1 (single oral administration)
[4] = human, plasma, 400 mg, 400 mg q.i.d., Day 7 (repeated oral administration)
[5] = human, plasma, 800 mg, 800 mg q.i.d. group, Day 1 (single oral administration)
[6] = human, plasma, 800 mg, 800 mg q.i.d., Day 7 (repeated oral administration)
[7] = human, plasma, 1600 mg, 1600 mg q.i.d group, Day 1 (single oral administration)
[8] = human, plasma, 1600 mg, 1600 mg q.i.d, Day 7 (repeated oral administration)
[9] = human, plasma, 1600 mg, 1600 mg t.i.d. group, Day 1 (single oral administration)
[10] = human, plasma, 1600 mg, 1600 mg t.i.d., Day 7 (repeated oral administration)

**Q.** With `O=S(=O)([O-])CCCS(=O)(=O)[O-].[Na+].[Na+]` [PDS, 1,3-propanedisulfonic acid, disodium salt] as the molecule, how does the half-life ([1]; human, plasma, oral, after single or multiple dosing, 400, 800, 1600 mg, healthy male subjects, range of means, read-out: mean half-life (T1/2)) read?
**A.** Its half-life is 300 to 1200 min.

**Q.** And the AUC(0-t) [1, 3]?
**A.** The AUC(0-t) was 1590 ng·h/mL.

**Q.** And the Cmax [1, 3]?
**A.** Its Cmax is 496 ng/mL.

**Q.** What about the Tmax [1, 3] of the same molecule?
**A.** The Tmax was 60 min.

**Q.** And the AUC(0-t) [1, 4]?
**A.** Its AUC(0-t) is 10500 ng·h/mL.

**Q.** What about the Cmax [1, 4] of the same molecule?
**A.** Its Cmax is 995 ng/mL.

**Q.** And the Tmax [1, 4]?
**A.** The Tmax was 15 min.

**Q.** And the AUC(0-t) [1, 5]?
**A.** The AUC(0-t) was 5180 ng·h/mL.

**Q.** And the Cmax [1, 5]?
**A.** The Cmax was 2680 ng/mL.

**Q.** What about the Tmax [1, 5] of the same molecule?
**A.** Its Tmax is 15 min.

**Q.** What about the AUC(0-t) [1, 6] of the same molecule?
**A.** The AUC(0-t) was 19900 ng·h/mL.

**Q.** What about the Cmax [1, 6] of the same molecule?
**A.** Its Cmax is 1680 ng/mL.

**Q.** What about the Tmax [1, 6] of the same molecule?
**A.** The Tmax was 15 min.

**Q.** And the AUC(0-t) [1, 7]?
**A.** The AUC(0-t) was 8300 ng·h/mL.

**Q.** What about the Cmax [1, 7] of the same molecule?
**A.** Its Cmax is 2800 ng/mL.

**Q.** What about the Tmax [1, 7] of the same molecule?
**A.** The Tmax was 30 min.

**Q.** And the AUC(0-t) [1, 8]?
**A.** The AUC(0-t) was 24500 ng·h/mL.

**Q.** What about the Cmax [1, 8] of the same molecule?
**A.** The Cmax was 5480 ng/mL.

**Q.** What about the Tmax [1, 8] of the same molecule?
**A.** Its Tmax is 15 min.

**Q.** And the AUC(0-t) [1, 9]?
**A.** Its AUC(0-t) is 7090 ng·h/mL.

**Q.** What about the Cmax [1, 9] of the same molecule?
**A.** Its Cmax is 2890 ng/mL.

**Q.** And the Tmax [1, 9]?
**A.** The Tmax was 22.5 min.

**Q.** And the AUC(0-t) [1, 10]?
**A.** Its AUC(0-t) is 25800 ng·h/mL.

**Q.** What about the Cmax [1, 10] of the same molecule?
**A.** The Cmax was 4890 ng/mL.

**Q.** And the Tmax [1, 10]?
**A.** The Tmax was 30 min.

**Q.** And the “dose dependence of systemic exposure (AUC0-t and Cmax)” value ([1]; single and repeated oral doses 400, 800, 1600 mg, healthy male subjects)?
**A.** The value was “approximately proportional to the administered dose”.

**Q.** What about the Tmax ([2]; Dose 400 (mg BID), Month 0 single oral dose, n = 2, mean) of the same molecule?
**A.** Its Tmax is 3 h.

**Q.** What about the Tmax ([2]; Dose 400 (mg BID), Month 24 repeated oral doses, n = 3, mean) of the same molecule?
**A.** Its Tmax is 1.83 h.

**Q.** What about the Tmax ([2]; Dose 800 (mg BID), Month 0 single oral dose, n = 5, mean) of the same molecule?
**A.** The Tmax was 2.95 h.

**Q.** And the Tmax ([2]; Dose 800 (mg BID), Month 24 repeated oral doses, n = 4, mean)?
**A.** Its Tmax is 1.85 h.

**Q.** What about the Tmax ([2]; Dose 1200 (mg BID), Month 0 single oral dose, n = 4, mean) of the same molecule?
**A.** Its Tmax is 0.69 h.

**Q.** What about the Tmax ([2]; Dose 1200 (mg BID), Month 24 repeated oral doses, n = 1) of the same molecule?
**A.** The Tmax was 0.68 h.

**Q.** And the AUC(0-t) ([2]; 400 mg BID, Month 24 repeated oral doses, n = 3, mean, read-out: AUC(0-12))?
**A.** Its AUC(0-t) is 17600 ng·h/mL.

**Q.** What about the AUC(0-t) ([2]; 400 mg BID, Month 24 repeated oral doses, n = 3, mean, read-out: AUC(0-tlast)) of the same molecule?
**A.** Its AUC(0-t) is 25700 ng·h/mL.

**Q.** What about the AUC(0-t) ([2]; 400 mg, Dose 400 (mg BID), Month 0 single oral dose, n = 2, mean, read-out: AUC(0-12)) of the same molecule?
**A.** Its AUC(0-t) is 7410 ng·h/mL.

**Q.** And the AUC(0-t) ([2]; 400 mg, Dose 400 (mg BID), Month 0 single oral dose, n = 2, mean, read-out: AUC(0-tlast))?
**A.** The AUC(0-t) was 11700 ng·h/mL.

**Q.** What about the Cmax ([2]; 400 mg, Dose 400 (mg BID), Month 24 repeated oral doses, n = 3, mean) of the same molecule?
**A.** The Cmax was 2160 ng/mL.

**Q.** What about the Cmax ([2]; 400 mg, Dose 400 (mg BID, ClCr 20-30 mL/min), Month 0 single oral dose, n = 2, mean) of the same molecule?
**A.** The Cmax was 841 ng/mL.

**Q.** What about the Cmax ([2]; 800 mg BID, Month 24 repeated oral doses, n = 4, mean) of the same molecule?
**A.** Its Cmax is 1900 ng/mL.

**Q.** What about the AUC(0-t) ([2]; 800 mg BID, Month 24 repeated oral doses, n = 4, mean, read-out: AUC(0-12)) of the same molecule?
**A.** Its AUC(0-t) is 13700 ng·h/mL.

**Q.** And the AUC(0-t) ([2]; 800 mg BID, Month 24 repeated oral doses, n = 4, mean, read-out: AUC(0-tlast))?
**A.** Its AUC(0-t) is 21200 ng·h/mL.

**Q.** What about the AUC(0-t) ([2]; 800 mg, Dose 800 (mg BID), Month 0 single oral dose, n = 5, mean, read-out: AUC(0-12)) of the same molecule?
**A.** Its AUC(0-t) is 5950 ng·h/mL.

**Q.** What about the AUC(0-t) ([2]; 800 mg, Dose 800 (mg BID), Month 0 single oral dose, n = 5, mean, read-out: AUC(0-tlast)) of the same molecule?
**A.** Its AUC(0-t) is 9810 ng·h/mL.

**Q.** And the Cmax ([2]; 800 mg, Dose 800 (mg BID, ClCr 30-80 mL/min), Month 0 single oral dose, n = 5, mean)?
**A.** The Cmax was 812 ng/mL.

**Q.** What about the Cmax ([2]; 1200 mg BID, Month 24 repeated oral doses, n = 1) of the same molecule?
**A.** Its Cmax is 637 ng/mL.

**Q.** What about the AUC(0-t) ([2]; 1200 mg BID, Month 24 repeated oral doses, n = 1, read-out: AUC(0-12)) of the same molecule?
**A.** Its AUC(0-t) is 4930 ng·h/mL.

**Q.** And the AUC(0-t) ([2]; 1200 mg BID, Month 24 repeated oral doses, n = 1, read-out: AUC(0-tlast))?
**A.** The AUC(0-t) was 9140 ng·h/mL.

**Q.** And the AUC(0-t) ([2]; 1200 mg, Dose 1200 (mg BID), Month 0 single oral dose, n = 4, mean, read-out: AUC(0-12))?
**A.** The AUC(0-t) was 4210 ng·h/mL.

**Q.** And the AUC(0-t) ([2]; 1200 mg, Dose 1200 (mg BID), Month 0 single oral dose, n = 4, mean, read-out: AUC(0-tlast))?
**A.** The AUC(0-t) was 5630 ng·h/mL.

**Q.** What about the Cmax ([2]; 1200 mg, Dose 1200 (mg BID, ClCr >80 mL/min), Month 0 single oral dose, n = 4, mean) of the same molecule?
**A.** Its Cmax is 867 ng/mL.

**Q.** And the half-life ([2]; read-out: mean T1/2 calculated based on the accumulation factor (converted))?
**A.** Its half-life is 900 min.

**Q.** And the half-life ([2]; read-out: range of T1/2 calculated based on the accumulation factor)?
**A.** The half-life was 600 to 1440 min.
